For assay [1], the target named is Tyrosine-protein kinase ABL1 (Homo sapiens, UniProt P00519). The assay is described as follows: Selectivity interaction (KinaseProfiler screening (Millipore)) EUB0000601a ABL1. As to conditions: at 3 µM.
Assay [2] concerns the target T1, Serine/threonine-protein kinase TAO2 (Homo sapiens) (UniProt Q9UL54).
T1 sequence (whole entry): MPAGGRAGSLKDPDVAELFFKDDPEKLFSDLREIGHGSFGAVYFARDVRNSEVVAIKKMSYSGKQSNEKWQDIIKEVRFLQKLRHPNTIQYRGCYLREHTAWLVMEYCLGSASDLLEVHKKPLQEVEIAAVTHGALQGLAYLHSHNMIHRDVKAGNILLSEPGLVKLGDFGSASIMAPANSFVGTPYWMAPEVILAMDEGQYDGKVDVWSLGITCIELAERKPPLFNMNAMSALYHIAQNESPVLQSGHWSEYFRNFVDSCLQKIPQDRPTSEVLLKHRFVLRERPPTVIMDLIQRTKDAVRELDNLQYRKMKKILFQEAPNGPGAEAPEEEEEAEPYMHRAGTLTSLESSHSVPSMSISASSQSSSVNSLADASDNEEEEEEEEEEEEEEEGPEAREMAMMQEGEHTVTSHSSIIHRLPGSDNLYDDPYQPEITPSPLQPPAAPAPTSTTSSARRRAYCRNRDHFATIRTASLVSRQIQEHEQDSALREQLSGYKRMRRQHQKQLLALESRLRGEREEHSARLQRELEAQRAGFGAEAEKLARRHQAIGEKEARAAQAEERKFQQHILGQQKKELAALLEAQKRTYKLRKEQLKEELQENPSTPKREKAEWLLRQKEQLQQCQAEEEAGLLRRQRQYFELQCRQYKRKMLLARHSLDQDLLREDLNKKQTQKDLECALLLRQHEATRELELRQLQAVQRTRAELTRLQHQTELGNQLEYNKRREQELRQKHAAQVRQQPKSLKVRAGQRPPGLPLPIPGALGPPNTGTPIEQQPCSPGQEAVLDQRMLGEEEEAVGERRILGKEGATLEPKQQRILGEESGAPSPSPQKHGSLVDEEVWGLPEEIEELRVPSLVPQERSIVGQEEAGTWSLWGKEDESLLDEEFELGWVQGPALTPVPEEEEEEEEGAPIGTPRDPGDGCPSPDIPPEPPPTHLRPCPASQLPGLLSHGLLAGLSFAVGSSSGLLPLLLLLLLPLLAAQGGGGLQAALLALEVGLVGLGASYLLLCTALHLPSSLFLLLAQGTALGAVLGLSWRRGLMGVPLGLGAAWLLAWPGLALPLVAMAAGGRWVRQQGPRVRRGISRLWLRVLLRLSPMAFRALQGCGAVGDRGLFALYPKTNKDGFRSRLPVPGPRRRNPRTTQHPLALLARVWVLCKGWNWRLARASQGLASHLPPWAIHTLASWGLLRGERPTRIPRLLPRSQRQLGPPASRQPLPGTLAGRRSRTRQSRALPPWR
Put plainly: Selectivity interaction (SelectScreen profiling (Invitrogen)) EUB0000607a TAOK2. As to conditions: at 2 µM.

Assay [3] has as its target Non-receptor tyrosine-protein kinase TYK2 (Homo sapiens, UniProt P29597). Put plainly: Selectivity interaction (ActivX KiNativ screen (kinase selectivity in THP-1 cell lysates)) EUB0000639a TYK2. It counts as subcellular. To be noted: lysate, at 0.2 µM.
Assay [4] concerns the target T2, Mitogen-activated protein kinase kinase kinase kinase 2 (Homo sapiens) (UniProt Q12851).
T2 sequence (whole entry): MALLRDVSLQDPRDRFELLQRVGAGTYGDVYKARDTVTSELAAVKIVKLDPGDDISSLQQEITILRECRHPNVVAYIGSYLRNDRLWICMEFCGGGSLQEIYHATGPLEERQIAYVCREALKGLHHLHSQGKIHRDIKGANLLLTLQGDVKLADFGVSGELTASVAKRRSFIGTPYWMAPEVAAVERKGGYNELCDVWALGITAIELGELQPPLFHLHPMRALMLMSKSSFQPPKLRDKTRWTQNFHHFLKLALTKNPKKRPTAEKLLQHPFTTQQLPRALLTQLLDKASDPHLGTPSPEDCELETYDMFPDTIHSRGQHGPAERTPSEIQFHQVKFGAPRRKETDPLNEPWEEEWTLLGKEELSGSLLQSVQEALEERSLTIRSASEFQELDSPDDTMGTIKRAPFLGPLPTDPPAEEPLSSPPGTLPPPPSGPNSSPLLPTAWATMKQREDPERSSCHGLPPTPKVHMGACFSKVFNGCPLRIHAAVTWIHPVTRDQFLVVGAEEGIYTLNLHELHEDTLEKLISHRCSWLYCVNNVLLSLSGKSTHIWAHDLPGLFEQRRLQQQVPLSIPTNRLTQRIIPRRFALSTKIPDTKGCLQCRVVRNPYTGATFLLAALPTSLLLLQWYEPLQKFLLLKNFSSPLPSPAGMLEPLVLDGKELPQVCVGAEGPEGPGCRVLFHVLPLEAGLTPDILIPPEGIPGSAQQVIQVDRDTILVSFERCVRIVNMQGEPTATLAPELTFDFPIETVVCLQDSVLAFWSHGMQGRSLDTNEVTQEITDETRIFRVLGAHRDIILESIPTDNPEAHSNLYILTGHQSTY
Put plainly: Selectivity interaction (ActivX KiNativ screen (ex vivo kinase selectivity in human PBMCs)) EUB0001619a MAP4K2. It counts as cell-based. To be noted: PBMC, at 1 µM.

Sequence of Non-receptor tyrosine-protein kinase TYK2 (P29597 whole entry): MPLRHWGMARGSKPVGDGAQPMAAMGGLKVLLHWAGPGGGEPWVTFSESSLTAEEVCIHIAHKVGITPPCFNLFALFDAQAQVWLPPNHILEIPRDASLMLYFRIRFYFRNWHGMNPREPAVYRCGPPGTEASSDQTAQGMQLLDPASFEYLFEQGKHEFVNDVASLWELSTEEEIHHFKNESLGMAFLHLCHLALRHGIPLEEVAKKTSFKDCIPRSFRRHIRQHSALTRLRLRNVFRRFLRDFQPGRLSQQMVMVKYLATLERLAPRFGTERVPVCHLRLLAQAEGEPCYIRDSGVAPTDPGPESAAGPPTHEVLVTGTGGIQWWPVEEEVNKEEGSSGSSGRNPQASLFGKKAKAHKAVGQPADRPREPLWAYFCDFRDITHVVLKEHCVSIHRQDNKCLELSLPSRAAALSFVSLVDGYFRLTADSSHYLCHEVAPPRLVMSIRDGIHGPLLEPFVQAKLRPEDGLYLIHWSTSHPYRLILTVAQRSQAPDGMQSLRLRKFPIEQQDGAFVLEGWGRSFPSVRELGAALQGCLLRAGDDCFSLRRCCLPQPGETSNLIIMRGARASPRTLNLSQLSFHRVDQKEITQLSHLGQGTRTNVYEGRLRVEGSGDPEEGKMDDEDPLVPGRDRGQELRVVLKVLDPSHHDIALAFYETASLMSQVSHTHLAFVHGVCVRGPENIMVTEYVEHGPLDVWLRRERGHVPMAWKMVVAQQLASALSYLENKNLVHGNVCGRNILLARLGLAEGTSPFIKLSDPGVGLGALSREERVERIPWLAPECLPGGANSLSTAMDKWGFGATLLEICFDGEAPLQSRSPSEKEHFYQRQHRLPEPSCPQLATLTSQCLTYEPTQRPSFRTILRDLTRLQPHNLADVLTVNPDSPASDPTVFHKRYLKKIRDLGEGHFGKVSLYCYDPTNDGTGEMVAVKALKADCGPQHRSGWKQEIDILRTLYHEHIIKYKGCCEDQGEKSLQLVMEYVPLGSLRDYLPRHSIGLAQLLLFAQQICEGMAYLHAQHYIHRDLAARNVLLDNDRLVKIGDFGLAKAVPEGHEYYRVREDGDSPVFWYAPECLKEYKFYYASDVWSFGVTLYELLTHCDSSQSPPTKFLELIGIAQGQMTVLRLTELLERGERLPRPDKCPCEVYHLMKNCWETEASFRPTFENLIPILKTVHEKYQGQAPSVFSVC
Sequence of Tyrosine-protein kinase ABL1 (P00519 whole entry): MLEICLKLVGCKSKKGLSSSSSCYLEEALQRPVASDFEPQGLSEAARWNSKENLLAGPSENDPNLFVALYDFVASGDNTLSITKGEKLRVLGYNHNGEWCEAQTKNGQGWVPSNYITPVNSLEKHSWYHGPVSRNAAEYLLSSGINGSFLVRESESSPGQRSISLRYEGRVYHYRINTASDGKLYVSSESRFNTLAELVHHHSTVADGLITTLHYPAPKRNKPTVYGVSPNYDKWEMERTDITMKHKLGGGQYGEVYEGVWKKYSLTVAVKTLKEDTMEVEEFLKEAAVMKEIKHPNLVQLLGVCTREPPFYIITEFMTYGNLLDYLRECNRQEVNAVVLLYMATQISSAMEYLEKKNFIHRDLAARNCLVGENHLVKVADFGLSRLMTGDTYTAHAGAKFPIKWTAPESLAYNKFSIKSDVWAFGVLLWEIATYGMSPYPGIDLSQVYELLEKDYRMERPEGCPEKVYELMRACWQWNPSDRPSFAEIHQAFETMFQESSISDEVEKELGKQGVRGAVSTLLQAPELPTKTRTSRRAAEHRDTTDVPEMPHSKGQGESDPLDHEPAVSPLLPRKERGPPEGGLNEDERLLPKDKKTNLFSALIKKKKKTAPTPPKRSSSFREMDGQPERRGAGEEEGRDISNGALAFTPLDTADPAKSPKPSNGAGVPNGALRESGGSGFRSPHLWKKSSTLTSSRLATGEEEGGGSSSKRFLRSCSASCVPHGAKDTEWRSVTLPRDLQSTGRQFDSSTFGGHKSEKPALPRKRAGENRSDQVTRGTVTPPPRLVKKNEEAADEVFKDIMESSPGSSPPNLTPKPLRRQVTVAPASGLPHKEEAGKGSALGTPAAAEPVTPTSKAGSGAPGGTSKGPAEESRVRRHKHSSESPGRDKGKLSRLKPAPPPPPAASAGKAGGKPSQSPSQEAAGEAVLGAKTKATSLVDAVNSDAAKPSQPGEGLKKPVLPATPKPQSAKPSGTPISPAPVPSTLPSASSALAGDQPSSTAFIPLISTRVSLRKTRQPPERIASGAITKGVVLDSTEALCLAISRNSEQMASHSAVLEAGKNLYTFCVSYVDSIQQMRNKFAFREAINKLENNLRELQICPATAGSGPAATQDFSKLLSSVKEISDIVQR

In turn, `CCc1cc(Nc2nccc(-c3c(-c4ccc(OC)c(C(=O)Nc5c(F)cccc5F)c4)nc4ccccn34)n2)c(OC)cc1N1CCC(N2CCN(S(C)(=O)=O)CC2)CC1` had a % of inhibition in assay [1] of 57%.

Take `CNC(=O)Nc1ccc(-c2nc(N3CC4CCC(C3)O4)c3cnn(C4CCC5(CC4)OCCO5)c3n2)cc1`: the % of inhibition in assay [2] stood at 3%.

On to `CC[C@@H]1[C@H](F)C(=O)N[C@@H]1COc1nccc2cc(C(N)=O)c(OC)cc12` [ZIMLOVISERTIB], for which the % of inhibition in assay [3] was 14%.

In assay [4], `N#Cc1cccc(-c2c[nH]c3ncnc(N4CCOCC4)c23)c1` returned a % of inhibition of 24%.

Source of the values: ChEMBL document CHEMBL5465560, “Selectivity Literature for EUbOPEN Chemogenomic Library” (2024).
